In article PMC7398594 (Neurotoxicology, 2020):

Experiments:
Type in all cases: cell-based, mouse
HEI-OC1 cells [1] = assay: MTT cellular viability assay; settings: HEI-OC1 cell culture, ± standard deviation
HEI-OC1 cells [2] = assay: Mitochondrial membrane potential assay; settings: treated at compound IC50 value
HEI-OC1 cells [3] = assay: Reactive oxygen species assay; settings: 24 hours, treated at compound IC50 value
[4] = system: caspase-3/7 activity in HEI-OC1 cells; assay: Caspase-3/7 luminescence assay; settings: treated at compound IC50 value

N.N.[Cl][Pt][Cl] [cisplatin]
IC50 (HEI-OC1 cells [1]; 24 Hr treatment): 1.66 ± 0.33 µM
IC50 (HEI-OC1 cells [1]; 48 Hr treatment): 4.52 ± 0.17 µM
mitochondrial membrane polarization (FL1 to FL3 ratio), % of negative control (HEI-OC1 cells [2]; 24 hours): 109%
mitochondrial membrane polarization (FL1 to FL3 ratio), % of negative control (HEI-OC1 cells [2]; 48 hours): 110%
ROS yield, % of negative control (HEI-OC1 cells [3]): 751%
caspase-3/7 activity, % of negative control ([4]; 24 hours): 86%
caspase-3/7 activity, % of negative control ([4]; 48 hours): 352%

[NH3+][Pt-2]([NH3+])([Cl])[n+]1cc2ccccc2c2ccccc21 (stereo not drawn) [phenanthriplatin, cis-diammine (phenanthridine) chloroplatinum(II)]
IC50 (HEI-OC1 cells [1]; 24 Hr treatment): 1.64 ± 0.19 µM
IC50 (HEI-OC1 cells [1]; 48 Hr treatment): 2.31 ± 0.29 µM
mitochondrial membrane polarization (FL1 to FL3 ratio), % of negative control (HEI-OC1 cells [2]; 24 hours): 98%
mitochondrial membrane polarization (FL1 to FL3 ratio), % of negative control (HEI-OC1 cells [2]; 48 hours): 88%
ROS yield, % of negative control (HEI-OC1 cells [3]): 741%
caspase-3/7 activity, % of negative control ([4]; 24 hours): 83%
caspase-3/7 activity, % of negative control ([4]; 48 hours): 89%

[NH3+][Pt-2]([NH3+])([Cl])[n+]1ccccc1 (stereo not drawn) [pyriplatin, cis-diammine (pyridine) chloroplatinum(II)]
IC50 (HEI-OC1 cells [1]; 24 Hr treatment): 11.1 ± 0.28 µM
IC50 (HEI-OC1 cells [1]; 48 Hr treatment): 2.52 ± 0.11 µM
mitochondrial membrane polarization (FL1 to FL3 ratio), % of negative control (HEI-OC1 cells [2]; 24 hours): 101%
mitochondrial membrane polarization (FL1 to FL3 ratio), % of negative control (HEI-OC1 cells [2]; 48 hours): 90%
ROS yield, % of negative control (HEI-OC1 cells [3]): 618%
caspase-3/7 activity, % of negative control ([4]; 24 hours): 82%
caspase-3/7 activity, % of negative control ([4]; 48 hours): 101%
